Values of other authors, collected in patent publication US9707273B2, “Peptides for use in the topical treatment of retinal neurodegenerative diseases, in particular in early stages of diabetic retinopathy and other retinal diseases in which neurodegeneration plays an essential role” (FUNDACIÓ HOSPITAL UNIVERSITARI VALL D'HEBRON—INSTITUT DE …, priority 2013, dated 2017).

Conditions: administered in the form of eye drops; Aiello et al. 2008

## Cc1cc(-c2cc(O)ccc2Cl)cc2nnc(Nc3ccc(OCCN4CCCC4)cc3)nc12 [TG100572, 4-chloro-3-(5-methyl-3-{[4-(2-pyrrolidin-I-ylethoxy)phenyl]amino}-1,2,4-benzotriazin-7-yl)phenol]
  reaching the target in the retina after eye drops: able to reach the target in the retina
